US20100298141A1, “SUBSTITUTED PYRIDINE N-OXIDE HERBICIDES” (E. I. DU PONT DE NEMOURS AND COMPANY, priority 2007, published 2010)

Experiments:
wheat = test: Test A pre-/postemergence greenhouse test; assay type: in vivo, Triticum aestivum; details: for Plant response rating, Wheat: 0 to 100 scale where 0 is no effect and 100 is complete control; for Wheat plant response rating: 0 to 100 scale
Summary of the method: (§1)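 Sowing in loam/sand; same-day pre (directed soil spray) and post (foliar, 1–2 leaf, 2–10 cm) treatment with surfactant-containing non-phytotoxic solvent formulation; ~10 days in greenhouse; eye-scored injury against untreated plants.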

common ragweed = test: Test C pre-/postemergence test; assay type: in vivo, Ambrosia elation
Summary of the method: (§2)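 Test chemicals were formulated with surfactant in a non-phytotoxic solvent and sprayed both on freshly planted seeds (preemergence) and on 1- to 4-leaf plants of 2–18 cm (postemergence). Flooded-paddy pots received compound directly into 3 cm of standing water, maintained for the test.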

lambsquarters = test: Test C pre-/postemergence test; assay type: in vivo, Chenopodium album
Summary of the method: as §2

Surinam grass = test: Test C pre-/postemergence test; assay type: in vivo, Brachiaria decumbens
Summary of the method: as §2

redroot pigweed = test: Test A pre-/postemergence greenhouse test; assay type: in vivo, Amaranthus retroflexus; details: for Plant response rating, Pigweed: 0 to 100 scale where 0 is no effect and 100 is complete control; for Pigweed plant response rating: 0 to 100 scale
Summary of the method: as §1

velvetleaf [1] = test: Test A pre-/postemergence greenhouse test; assay type: in vivo, Abutilon theophrasti; details: for Plant response rating, Velvetleaf: 0 to 100 scale where 0 is no effect and 100 is complete control; for Velvetleaf plant response rating: 0 to 100 scale
Summary of the method: as §1

eastern black nightshade = test: Test C pre-/postemergence test; assay type: in vivo, Solanum ptycanthum
Summary of the method: as §2

giant foxtail [2] = test: Test A pre-/postemergence greenhouse test; assay type: in vivo, Setaria faberi; details: for Plant response rating, Foxtail, Giant: 0 to 100 scale where 0 is no effect and 100 is complete control; for Foxtail, Giant plant response rating: 0 to 100 scale
Summary of the method: as §1

johnsongrass = test: Test C pre-/postemergence test; assay type: in vivo, Sorghum halepense
Summary of the method: as §2

duck salad = test: Test C flooded paddy test; assay type: in vivo, Heteranthera limosa; details: Flood
Summary of the method: (§3)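 Greenhouse pots flooded to 3 cm above soil at time of treatment received compound via the water, which stayed at that level.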

bermudagrass = test: Test C pre-/postemergence test; assay type: in vivo, Cynodon dactylon
Summary of the method: as §2

barnyardgrass = test: Test C flooded paddy test; assay type: in vivo, Echinochloa crus-galli; details: Flood
Summary of the method: as §3

wild oat = test: Test C pre-/postemergence test; assay type: in vivo, Avena fatua
Summary of the method: as §2

rice = test: Test C flooded paddy test; assay type: in vivo, Oryza sativa; details: Flood
Summary of the method: as §3

velvetleaf [3] = test: Test C pre-/postemergence test; assay type: in vivo, Abutilon theophrasti
Summary of the method: as §2

Goosegrass = test: Test C pre-/postemergence test; assay type: in vivo, Eleusin indica
Summary of the method: as §2

corn = test: Test A pre-/postemergence greenhouse test; assay type: in vivo, Zea mays; details: for Plant response rating, Corn: 0 to 100 scale where 0 is no effect and 100 is complete control; for Corn plant response rating: 0 to 100 scale
Summary of the method: as §1

giant foxtail [4] = test: Test C pre-/postemergence test; assay type: in vivo, Setaria faberii
Summary of the method: as §2

[5] = Postemergence, 500 g ai/ha, 0 is no effect, 100 is complete control
[6] = Preemergence, 125 g ai/ha, 0 no effect, 100 complete control
[7] = 62 g ai/ha, Preemergence, scale 0 to 100
[8] = 125 g ai/ha, preemergence, scale 0 (no effect) to 100 (complete control)
[9] = Preemergence, 31 g ai/ha, scale 0 to 100 (0 no effect, 100 complete control)
[10] = preemergence, 250 g ai/ha, scale 0 (no effect) to 100 (complete control)
[11] = 62 g ai/ha, scale 0 to 100 (0 no effect, 100 complete control)
[12] = 250 g ai/ha, scale 0 to 100, 0 no effect, 100 complete control, 13 to 15 days

Cn1nc(C(F)(F)F)c(C[S+]([O-])c2cccc[n+]2[O-])c1OCC(F)F (stereo not drawn) [Compound 75]
Plant response rating, Wheat (wheat; Postemergence, 125 g ai/ha): 50 | Wheat plant response rating (wheat; [5]): 70 | Wheat plant response rating (wheat; [6]): 70 | Plant response rating, Wheat (wheat; Preemergence, 500 g ai/ha): 100 | Ragweed plant response rating (common ragweed; [7]): 80 | Ragweed plant response rating (common ragweed; [8]): 85 | Plant response rating, Ragweed (common ragweed; [9]): 0 | Ragweed plant response rating (common ragweed; [10]): 100 | Lambsquarters plant response rating (lambsquarters; [7]): 100 | Lambsquarters plant response rating (lambsquarters; [8]): 100 | Plant response rating, Lambsquarters (lambsquarters; [9]): 100 | Lambsquarters plant response rating (lambsquarters; [10]): 100 | Surinam Grass plant response rating (Surinam grass; [7]): 100 | Surinam Grass plant response rating (Surinam grass; [8]): 100 | Plant response rating, Surinam Grass (Surinam grass; [9]): 60 | Surinam Grass plant response rating (Surinam grass; [10]): 100 | Plant response rating, Pigweed (redroot pigweed; Postemergence, 125 g ai/ha): 70 | Pigweed plant response rating (redroot pigweed; [5]): 100 | Pigweed plant response rating (redroot pigweed; [6]): 80 | Plant response rating, Pigweed (redroot pigweed; Preemergence, 500 g ai/ha): 100 | Plant response rating, Velvetleaf (velvetleaf [1]; Postemergence, 125 g ai/ha): 40 | Velvetleaf plant response rating (velvetleaf [1]; [5]): 80 | Velvetleaf plant response rating (velvetleaf [1]; [6]): 60 | Plant response rating, Velvetleaf (velvetleaf [1]; Preemergence, 500 g ai/ha): 100 | Nightshade plant response rating (eastern black nightshade; [7]): 98 | Nightshade plant response rating (eastern black nightshade; [8]): 100 | Plant response rating, Nightshade (eastern black nightshade; [9]): 0 | Nightshade plant response rating (eastern black nightshade; [10]): 100 | Plant response rating, Foxtail, Giant (giant foxtail [2]; Postemergence, 125 g ai/ha): 80 | Foxtail, Giant plant response rating (giant foxtail [2]; [5]): 90 | Foxtail, Giant plant response rating (giant foxtail [2]; [6]): 90 | Plant response rating, Foxtail, Giant (giant foxtail [2]; Preemergence, 500 g ai/ha): 100 | Johnsongrass plant response rating (johnsongrass; [7]): 85 | Johnsongrass plant response rating (johnsongrass; [8]): 100 | Plant response rating, Johnsongrass (johnsongrass; [9]): 50 | Johnsongrass plant response rating (johnsongrass; [10]): 100 | Plant response rating, Ducksalad (duck salad; [11]): 40 | Plant response rating, Ducksalad (duck salad; [12]): 85 | Bermudagrass plant response rating (bermudagrass; 62 g ai/ha, Preemergence, scale 0 to 100 (0 no effect, 100 complete control)): 100 | Bermudagrass plant response rating (bermudagrass; [8]): 100 | Plant response rating, Bermudagrass (bermudagrass; [9]): 100 | Bermudagrass plant response rating (bermudagrass; [10]): 100 | Plant response rating, Barnyardgrass (barnyardgrass; [11]): 0 | Plant response rating, Barnyardgrass (barnyardgrass; [12]): 45 | Oat, Wild plant response rating (wild oat; [7]): 40 | Oat, Wild plant response rating (wild oat; [8]): 70 | Plant response rating, Oat, Wild (wild oat; [9]): 0 | Oat, Wild plant response rating (wild oat; [10]): 80 | Plant response rating, Rice (rice; [11]): 0 | Plant response rating, Rice (rice; [12]): 60 | Velvetleaf plant response rating (velvetleaf [3]; [7]): 100 | Velvetleaf plant response rating (velvetleaf [3]; [8]): 100 | Plant response rating, Velvetleaf (velvetleaf [3]; [9]): 100 | Velvetleaf plant response rating (velvetleaf [3]; [10]): 100 | Goosegrass plant response rating (Goosegrass; [7]): 85 | Goosegrass plant response rating (Goosegrass; [8]): 100 | Plant response rating, Goosegrass (Goosegrass; [9]): 80 | Goosegrass plant response rating (Goosegrass; [10]): 100 | Plant response rating, Corn (corn; Postemergence, 125 g ai/ha): 50 | Corn plant response rating (corn; [5]): 70 | Corn plant response rating (corn; [6]): 0 | Plant response rating, Corn (corn; Preemergence, 500 g ai/ha): 70 | Foxtail, Giant plant response rating (giant foxtail [4]; [7]): 85 | Foxtail, Giant plant response rating (giant foxtail [4]; [8]): 100 | Plant response rating, Foxtail, Giant (giant foxtail [4]; [9]): 80 | Foxtail, Giant plant response rating (giant foxtail [4]; [10]): 100
